Reference: patent publication US20260217701A1, “SELECTIVE BET INHIBITORS AND USES THEREOF” (Tay Therapeutics Limited, priority 2022, published 2026)
Marks after values point to notes of the source that are not given here.

Test system: experimental autoimmune encephalomyelitis
Assay: Experimental autoimmune encephalomyelitis (EAE) model: EAE scores, onset, incidence
Type: in vivo, C57BI/6 mice
Procedure: Experimental Method H: EAE in animals treated with a BET inhibitor and vehicle. Animals were assigned to the groups outlined in Table 38.
Compound A may be formulated as illustrated in Experimental Method A (see Table 2E.). A 40 mg/mL stock solution of Compound A in DMSO was prepared and aliquots stored at −20° C. On each day of preparation an e.g., 0.75 mL aliquot of thawed stock was diluted with an equal volume of DMSO. The remaining vehicle components were added to provide the highest dose and then diluted with vehicle to provide lower doses. A 30 mg/mL stock solution of FTY720 in ethanol was prepared and stored at −20° C. Daily, the stock solution was diluted with room temperature water to a final dosing concentration of 0.6 mg/mL. Formulated Compound A, FTY720 and vehicle were each at room temperature for dosing.
Female C57BI/6 mice (9 weeks old) were acclimated for seven days prior to study initiation. On Day-1, animals were assigned to groups in a balanced manner to achieve similar average weights across the different groups. Chronic EAE was induced in female C57BI/6 mice following immunization with an emulsion of MOG35-55/CFA on Day 0, followed by an injection of pertussis toxin two hours after the initial immunization. On Day 1, a second injection of pertussis toxin was administered 24 hours after the initial immunization. Mice were injected subcutaneously at two sites on the back with the MOG35-55/CFA emulsion (Hooke Kit™ MOG35-55/CFA Emulsion PTX). The first injection site was located approximately 1 cm caudal of the neckline (upper back), and the second injection site was approximately 2 cm cranial of the base of the tail (lower back). The injection volume was 0.1 mL for each injection. The pertussis toxin was administered at the described times through intraperitoneal injection at a concentration of 85 ng/dose for both injections.
Body weight was measured three times a week (Monday, Wednesday, and Friday) starting on Day-1. Animals were scored daily for EAE starting on Day 7. In-between scores were assigned when the clinical signs fell between two below defined scores.

[1] = all animals receiving Compound A

Structure (SMILES): Cn1cc(-c2ccccc2)c(-c2cn(C)c(=O)c3[nH]c(-c4cnn(C(F)(F)F)c4)cc23)cc1=O [Compound A, 6-methyl-4-(1-methyl-2-oxo-5-phenyl-1,2-dihydropyridin-4-yl)-2-(1-(trifluoromethyl)-1H-pyrazol-4-yl)-1,6-dihydro-7H-pyrrolo[2,3-c]pyridin-7-one]
- EAE incidence rate (1 mg/kg (lowest dose)): 100%
- Mean maximum EAE scores relative to vehicle (1 mg/kg, 3 mg/kg and 10 mg/kg): significantly reduced mean maximum scores
- EAE incidence rate (3 mg/kg): 91.7%
- EAE incidence rate (10 mg/kg): 83.3%
- Incidence of EAE (%) (Compound A 1 mg/kg (Group 2)): 100%
- Mean Day of Onset (SEM) (Compound A 1 mg/kg (Group 2)): 14.5 (0.9) Day
- Mean End Score (SEM) (Compound A 1 mg/kg (Group 2)): 1.05 (0.35)*
- Mean Maximum Score (SEM) (Compound A 1 mg/kg (Group 2)): 2.18 (0.25)*
- Median Day of Onset (Compound A 1 mg/kg (Group 2)): 13.0 days
- Mean EAE score (Compound A 1 mg/kg (Group 2), Day 7): 0.00
- Mean EAE score (Compound A 1 mg/kg (Group 2), Day 8): 0.00
- Mean EAE score (Compound A 1 mg/kg (Group 2), Day 9): 0.00
- Mean EAE score (Compound A 1 mg/kg (Group 2), Day 10): 0.00
- Mean EAE score (Compound A 1 mg/kg (Group 2), Day 11): 0.05
- Mean EAE score (Compound A 1 mg/kg (Group 2), Day 12): 0.18
- Mean EAE score (Compound A 1 mg/kg (Group 2), Day 13): 0.55
- Mean EAE score (Compound A 1 mg/kg (Group 2), Day 14): 0.95
- Mean EAE score (Compound A 1 mg/kg (Group 2), Day 15): 1.27
- Mean EAE score (Compound A 1 mg/kg (Group 2), Day 16): 1.45
- Mean EAE score (Compound A 1 mg/kg (Group 2), Day 17): 1.73
- Mean EAE score (Compound A 1 mg/kg (Group 2), Day 18): 1.68
- Mean EAE score (Compound A 1 mg/kg (Group 2), Day 19): 1.68
- Mean EAE score (Compound A 1 mg/kg (Group 2), Day 20): 1.55
- Mean EAE score (Compound A 1 mg/kg (Group 2), Day 21): 1.64
- Mean EAE score (Compound A 1 mg/kg (Group 2), Day 22): 1.32
- Mean EAE score (Compound A 1 mg/kg (Group 2), Day 23): 1.23
- Mean EAE score (Compound A 1 mg/kg (Group 2), Day 24): 1.23
- Mean EAE score (Compound A 1 mg/kg (Group 2), Day 25): 1.09
- Mean EAE score (Compound A 1 mg/kg (Group 2), Day 26): 1.14
- Mean EAE score (Compound A 1 mg/kg (Group 2), Day 27): 1.09
- Mean EAE score (Compound A 1 mg/kg (Group 2), Day 28): 1.05
- Incidence of EAE (%) (Compound A 3 mg/kg (Group 3)): 91.7%
- Mean Day of Onset (SEM) (Compound A 3 mg/kg (Group 3)): 14.2 (0.4) Day
- Mean End Score (SEM) (Compound A 3 mg/kg (Group 3)): 0.73 (0.26)**
- Mean Maximum Score (SEM) (Compound A 3 mg/kg (Group 3)): 1.77 (0.23)***
- Median Day of Onset (Compound A 3 mg/kg (Group 3)): 14.0 days
- Mean EAE score (Compound A 3 mg/kg (Group 3), Day 7): 0.00
- Mean EAE score (Compound A 3 mg/kg (Group 3), Day 8): 0.00
- Mean EAE score (Compound A 3 mg/kg (Group 3), Day 9): 0.00
- Mean EAE score (Compound A 3 mg/kg (Group 3), Day 10): 0.00
- Mean EAE score (Compound A 3 mg/kg (Group 3), Day 11): 0.00
- Mean EAE score (Compound A 3 mg/kg (Group 3), Day 12): 0.00
- Mean EAE score (Compound A 3 mg/kg (Group 3), Day 13): 0.29
- Mean EAE score (Compound A 3 mg/kg (Group 3), Day 14): 0.63
- Mean EAE score (Compound A 3 mg/kg (Group 3), Day 15): 0.88
- Mean EAE score (Compound A 3 mg/kg (Group 3), Day 16): 1.29
- Mean EAE score (Compound A 3 mg/kg (Group 3), Day 17): 1.67
- Mean EAE score (Compound A 3 mg/kg (Group 3), Day 18): 1.54
- Mean EAE score (Compound A 3 mg/kg (Group 3), Day 19): 1.18
- Mean EAE score (Compound A 3 mg/kg (Group 3), Day 20): 1.23
- Mean EAE score (Compound A 3 mg/kg (Group 3), Day 21): 1.18
- Mean EAE score (Compound A 3 mg/kg (Group 3), Day 22): 0.95
- Mean EAE score (Compound A 3 mg/kg (Group 3), Day 23): 0.91
- Mean EAE score (Compound A 3 mg/kg (Group 3), Day 24): 0.91
- Mean EAE score (Compound A 3 mg/kg (Group 3), Day 25): 0.95
- Mean EAE score (Compound A 3 mg/kg (Group 3), Day 26): 0.95
- Mean EAE score (Compound A 3 mg/kg (Group 3), Day 27): 0.95
- Mean EAE score (Compound A 3 mg/kg (Group 3), Day 28): 0.73
- Incidence of EAE (%) (Compound A 10 mg/kg (Group 4)): 83.3%
- Mean Day of Onset (SEM) (Compound A 10 mg/kg (Group 4)): 13.4 (0.6) Day
- Mean End Score (SEM) (Compound A 10 mg/kg (Group 4)): 0.29 (0.13)***
- Mean Maximum Score (SEM) (Compound A 10 mg/kg (Group 4)): 1.67 (0.28)***
- Median Day of Onset (Compound A 10 mg/kg (Group 4)): 13.0 days
- Mean EAE score (Compound A 10 mg/kg (Group 4), Day 7): 0.00
- Mean EAE score (Compound A 10 mg/kg (Group 4), Day 8): 0.00
- Mean EAE score (Compound A 10 mg/kg (Group 4), Day 9): 0.00
- Mean EAE score (Compound A 10 mg/kg (Group 4), Day 10): 0.00
- Mean EAE score (Compound A 10 mg/kg (Group 4), Day 11): 0.04
- Mean EAE score (Compound A 10 mg/kg (Group 4), Day 12): 0.21
- Mean EAE score (Compound A 10 mg/kg (Group 4), Day 13): 0.83
- Mean EAE score (Compound A 10 mg/kg (Group 4), Day 14): 1.04
- Mean EAE score (Compound A 10 mg/kg (Group 4), Day 15): 1.33
- Mean EAE score (Compound A 10 mg/kg (Group 4), Day 16): 1.46
- Mean EAE score (Compound A 10 mg/kg (Group 4), Day 17): 1.46
- Mean EAE score (Compound A 10 mg/kg (Group 4), Day 18): 1.54
- Mean EAE score (Compound A 10 mg/kg (Group 4), Day 19): 1.21
- Mean EAE score (Compound A 10 mg/kg (Group 4), Day 20): 1.13
- Mean EAE score (Compound A 10 mg/kg (Group 4), Day 21): 1.17
- Mean EAE score (Compound A 10 mg/kg (Group 4), Day 22): 0.75
- Mean EAE score (Compound A 10 mg/kg (Group 4), Day 23): 0.71
- Mean EAE score (Compound A 10 mg/kg (Group 4), Day 24): 0.63
- Mean EAE score (Compound A 10 mg/kg (Group 4), Day 25): 0.46
- Mean EAE score (Compound A 10 mg/kg (Group 4), Day 26): 0.50
- Mean EAE score (Compound A 10 mg/kg (Group 4), Day 27): 0.46
- Mean EAE score (Compound A 10 mg/kg (Group 4), Day 28): 0.29
- Mean EAE score compared to positive control FTY720 (Day 28, 10 mg/kg): comparable mean EAE score
- Day on which EAE scores peaked [1]: ~17 days
- Mean end EAE scores relative to vehicle [1]: significantly reduced mean end scores
- Mean day of onset of EAE compared with vehicle (all doses): similar
